Source: patent publication US12077503B2, “Substituted cyclic amides and their use as herbicides” (FMC CORPORATION, priority 2015, dated 2024)

What was measured:
Assay type in all cases: in vivo
corn (Zea mays) [1] = assay: Test G Pre-Emergence Protocol; conditions: Zea mays, pre-emergence, 312 h, evaluated after 13 days; for plant injury at 15.625 g/ha: 15.625 g ai/ha; for plant injury at 15.625 g/ha / plant injury at 250 g/ha: read-out: Corn damage rating (100=total damage to plant; 0=no damage to plant); for plant injury at 62.5 g/ha: 62.5 g ai/ha, 100=total damage to plant, 0=no damage to plant, read-out: plant damage rating, Corn; for plant injury at 250 g/ha: 250 g ai/ha
Outline: (§1)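 Glasshouse pre-emergence test: soil-sown seeds, sprayed after 1 d at 15.625, 62.5 or 250 g/ha. Conditions 24/16° C day/night, 14 h light, 65% humidity, watering twice daily. Rating 13 d post-spray (100 = total damage).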

[2] = tested on: ivy-leaved morning glory (Ipomoea hederacea); assay: Test G Pre-Emergence Protocol; conditions: Ipomoea, pre-emergence, 312 h, evaluated after 13 days; for pest or weed control at 15.625 g/ha: 15.625 g ai/ha, read-out: Morning-glory, Ivy-leaved damage rating (100=total damage to plant; 0=no damage to plant); for pest or weed control at 62.5 g/ha: 62.5 g ai/ha, 100=total damage to plant, 0=no damage to plant, read-out: plant damage rating, Morningglory, Ivy-leaved; for pest or weed control at 250 g/ha: 250 g ai/ha, read-out: Morningglory, Ivy-leaved damage rating (100=total damage to plant; 0=no damage to plant)
Outline: as §1

[3] = tested on: barnyardgrass (Echinochloa crus-galli); assay: Test G Pre-Emergence Protocol; conditions: Echinochloa crus-galli, pre-emergence, 312 h, evaluated after 13 days; for pest or weed control at 15.625 g/ha: 15.625 g ai/ha, read-out: Barnyard grass damage rating (100=total damage to plant; 0=no damage to plant); for pest or weed control at 62.5 g/ha: 62.5 g ai/ha, 100=total damage to plant, 0=no damage to plant, read-out: plant damage rating, Barnyardgrass; for pest or weed control at 250 g/ha: 250 g ai/ha, read-out: Barnyardgrass damage rating (100=total damage to plant; 0=no damage to plant)
Outline: as §1

[4] = tested on: velvetleaf (Abutilon theophrasti); assay: Test G Pre-Emergence Protocol; conditions: Abutilon theophrasti, pre-emergence, 312 h, evaluated after 13 days; for pest or weed control at 15.625 g/ha: 15.625 g ai/ha; for pest or weed control at 15.625 g/ha / pest or weed control at 250 g/ha: read-out: Velvetleaf damage rating (100=total damage to plant; 0=no damage to plant); for pest or weed control at 62.5 g/ha: 62.5 g ai/ha, 100=total damage to plant, 0=no damage to plant, read-out: plant damage rating, Velvetleaf; for pest or weed control at 250 g/ha: 250 g ai/ha
Outline: as §1

[5] = tested on: giant foxtail (Setaria faberi); assay: Test G Pre-Emergence Protocol; conditions: Setaria faberi, pre-emergence, 312 h, evaluated after 13 days; for pest or weed control at 15.625 g/ha: 15.625 g ai/ha; for pest or weed control at 15.625 g/ha / pest or weed control at 250 g/ha: read-out: Foxtail, Giant damage rating (100=total damage to plant; 0=no damage to plant); for pest or weed control at 62.5 g/ha: 62.5 g ai/ha, 100=total damage to plant, 0=no damage to plant, read-out: plant damage rating, Foxtail, Giant; for pest or weed control at 250 g/ha: 250 g ai/ha
Outline: as §1

[6] = tested on: redroot pigweed (Amaranthus retroflexus); assay: Test G Pre-Emergence Protocol; conditions: Amaranthus retroflexus, pre-emergence, 312 h, evaluated after 13 days; for pest or weed control at 15.625 g/ha: 15.625 g ai/ha; for pest or weed control at 15.625 g/ha / pest or weed control at 250 g/ha: read-out: Pigweed, Redroot damage rating (100=total damage to plant; 0=no damage to plant); for pest or weed control at 62.5 g/ha: 62.5 g ai/ha, 100=total damage to plant, 0=no damage to plant, read-out: plant damage rating, Pigweed, Redroot; for pest or weed control at 250 g/ha: 250 g ai/ha
Outline: as §1

corn (Zea mays) [7] = assay: Test G Post-Emergence Protocol; conditions: Zea mays, post-emergence, 312 h; for plant injury at 15.625 g/ha: 15.625 g ai/ha, evaluated after 13 days (100=total damage to plant; 0=no damage to plant), read-out: Corn damage rating; for plant injury at 62.5 g/ha: 62.5 g ai/ha, read-out: Corn damage rating (100=total damage to plant; 0=no damage to plant); for plant injury at 62.5 g/ha / plant injury at 250 g/ha: evaluated after 13 days; for plant injury at 250 g/ha: 250 g ai/ha, read-out: damage to plant, Corn (100=total damage to plant; 0=no damage to plant)
Outline: (§2)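 Values are percent visual injury at 13 days after treatment (0 none, 100 total). Treatment was a post-emergence spray at 15.625, 62.5 or 250 g/ha on 8-day-old pot plants kept at 24/16 °C.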

[8] = tested on: ivy-leaved morning glory (Ipomoea hederacea); assay: Test G Post-Emergence Protocol; conditions: Ipomoea, post-emergence, 312 h; for pest or weed control at 15.625 g/ha: 15.625 g ai/ha, evaluated after 13 days (100=total damage to plant; 0=no damage to plant), read-out: Morningglory, Ivy-leaved damage rating; for pest or weed control at 62.5 g/ha: 62.5 g ai/ha, read-out: Morningglory, Ivy-leaved damage rating (100=total damage to plant; 0=no damage to plant); for pest or weed control at 62.5 g/ha / pest or weed control at 250 g/ha: evaluated after 13 days; for pest or weed control at 250 g/ha: 250 g ai/ha, read-out: damage to plant, Morningglory, Ivy-leaved (100=total damage to plant; 0=no damage to plant)
Outline: as §2

[9] = tested on: barnyardgrass (Echinochloa crus-galli); assay: Test G Post-Emergence Protocol; conditions: Echinochloa crus-galli, post-emergence, 312 h; for pest or weed control at 15.625 g/ha: 15.625 g ai/ha, evaluated after 13 days (100=total damage to plant; 0=no damage to plant), read-out: Barnyardgrass damage rating; for pest or weed control at 62.5 g/ha: 62.5 g ai/ha, read-out: Barnyardgrass damage rating (100=total damage to plant; 0=no damage to plant); for pest or weed control at 62.5 g/ha / pest or weed control at 250 g/ha: evaluated after 13 days; for pest or weed control at 250 g/ha: 250 g ai/ha, read-out: damage to plant, Barnyardgrass (100=total damage to plant; 0=no damage to plant)
Outline: as §2

[10] = tested on: velvetleaf (Abutilon theophrasti); assay: Test G Post-Emergence Protocol; conditions: Abutilon theophrasti, post-emergence, 312 h; for pest or weed control at 15.625 g/ha: 15.625 g ai/ha, evaluated after 13 days (100=total damage to plant; 0=no damage to plant), read-out: Velvetleaf damage rating; for pest or weed control at 62.5 g/ha: 62.5 g ai/ha, read-out: Velvetleaf damage rating (100=total damage to plant; 0=no damage to plant); for pest or weed control at 62.5 g/ha / pest or weed control at 250 g/ha: evaluated after 13 days; for pest or weed control at 250 g/ha: 250 g ai/ha, read-out: damage to plant, Velvetleaf (100=total damage to plant; 0=no damage to plant)
Outline: as §2

[11] = tested on: giant foxtail (Setaria faberi); assay: Test G Post-Emergence Protocol; conditions: Setaria faberi, post-emergence, 312 h; for pest or weed control at 15.625 g/ha: 15.625 g ai/ha, evaluated after 13 days (100=total damage to plant; 0=no damage to plant), read-out: Foxtail, Giant damage rating; for pest or weed control at 62.5 g/ha: 62.5 g ai/ha, read-out: Foxtail, Giant damage rating (100=total damage to plant; 0=no damage to plant); for pest or weed control at 62.5 g/ha / pest or weed control at 250 g/ha: evaluated after 13 days; for pest or weed control at 250 g/ha: 250 g ai/ha, read-out: damage to plant, Foxtail, Giant (100=total damage to plant; 0=no damage to plant)
Outline: as §2

[12] = tested on: redroot pigweed (Amaranthus retroflexus); assay: Test G Post-Emergence Protocol; conditions: Amaranthus retroflexus, post-emergence, 312 h; for pest or weed control at 15.625 g/ha: 15.625 g ai/ha, evaluated after 13 days (100=total damage to plant; 0=no damage to plant), read-out: Pigweed, Redroot damage rating; for pest or weed control at 62.5 g/ha: 62.5 g ai/ha, read-out: Pigweed, Redroot damage rating (100=total damage to plant; 0=no damage to plant); for pest or weed control at 62.5 g/ha / pest or weed control at 250 g/ha: evaluated after 13 days; for pest or weed control at 250 g/ha: 250 g ai/ha, read-out: damage to plant, Pigweed, Redroot (100=total damage to plant; 0=no damage to plant)
Outline: as §2

Row | SMILES | plant injury at 15.625 g/ha (corn (Zea mays) [1]) [%] | plant injury at 62.5 g/ha (corn (Zea mays) [1]) [%] | plant injury at 250 g/ha (corn (Zea mays) [1]) [%] | pest or weed control at 15.625 g/ha [2] [%] | pest or weed control at 62.5 g/ha [2] [%] | pest or weed control at 250 g/ha [2] [%] | pest or weed control at 15.625 g/ha [3] [%] | pest or weed control at 62.5 g/ha [3] [%] | pest or weed control at 250 g/ha [3] [%] | pest or weed control at 15.625 g/ha [4] [%] | pest or weed control at 62.5 g/ha [4] [%] | pest or weed control at 250 g/ha [4] [%] | pest or weed control at 15.625 g/ha [5] [%] | pest or weed control at 62.5 g/ha [5] [%] | pest or weed control at 250 g/ha [5] [%] | pest or weed control at 15.625 g/ha [6] [%] | pest or weed control at 62.5 g/ha [6] [%] | pest or weed control at 250 g/ha [6] [%] | plant injury at 15.625 g/ha (corn (Zea mays) [7]) [%] | plant injury at 62.5 g/ha (corn (Zea mays) [7]) [%] | other results
1 | Cc1ccnc(NC(=O)[C@@H]2C(=O)N(C)C[C@H]2c2ccc(C(F)(F)F)cc2)n1 (racemic) [Compound 1557] | 0 | 0 | 10 | 0 | 0 | 0 | 0 | 0 | 10 | 0 | 0 | 0 | 0 | 0 | 20 | 0 | 0 | 0 | 0 | 0 | plant injury at 250 g/ha (corn (Zea mays) [7]): 20%; pest or weed control at 15.625 g/ha [8]: 0%; pest or weed control at 62.5 g/ha [8]: 0%; pest or weed control at 250 g/ha [8]: 0%; pest or weed control at 15.625 g/ha [9]: 0%; pest or weed control at 62.5 g/ha [9]: 20%; pest or weed control at 250 g/ha [9]: 20%; pest or weed control at 15.625 g/ha [10]: 0%; pest or weed control at 62.5 g/ha [10]: 0%; pest or weed control at 250 g/ha [10]: 10%; pest or weed control at 15.625 g/ha [11]: 0%; pest or weed control at 62.5 g/ha [11]: 0%; pest or weed control at 250 g/ha [11]: 10%; pest or weed control at 15.625 g/ha [12]: 0%; pest or weed control at 62.5 g/ha [12]: 0%; pest or weed control at 250 g/ha [12]: 0%
2 | Cc1nnc(NC(=O)[C@@H]2C(=O)N(C)C[C@H]2c2ccc(C(F)(F)F)cc2)s1 (racemic) [Compound 1559] | 0 | 0 | 0 | 0 | 0 | 0 | 0 | 0 | 0 | 0 | 0 | 0 | 0 | 0 | 0 | 0 | 0 | 0 | 0 | 0 | plant injury at 250 g/ha (corn (Zea mays) [7]): 0%; pest or weed control at 15.625 g/ha [8]: 0%; pest or weed control at 62.5 g/ha [8]: 0%; pest or weed control at 250 g/ha [8]: 0%; pest or weed control at 15.625 g/ha [9]: 0%; pest or weed control at 62.5 g/ha [9]: 0%; pest or weed control at 250 g/ha [9]: 0%; pest or weed control at 15.625 g/ha [10]: 0%; pest or weed control at 62.5 g/ha [10]: 0%; pest or weed control at 250 g/ha [10]: 0%; pest or weed control at 15.625 g/ha [11]: 0%; pest or weed control at 62.5 g/ha [11]: 0%; pest or weed control at 250 g/ha [11]: 0%; pest or weed control at 15.625 g/ha [12]: 0%; pest or weed control at 62.5 g/ha [12]: 0%; pest or weed control at 250 g/ha [12]: 0%
3 | Cc1cnc(NC(=O)[C@@H]2C(=O)N(C)C[C@H]2c2ccc(C(F)(F)F)cc2)s1 (racemic) [Compound 1570] | 0 | 0 | 0 | 0 | 0 | 0 | 0 | 0 | 0 | 0 | 0 | 0 | 0 | 0 | 0 | 0 | 0 | 0 | 0 | 0 | plant injury at 250 g/ha (corn (Zea mays) [7]): 0%; pest or weed control at 15.625 g/ha [8]: 0%; pest or weed control at 62.5 g/ha [8]: 0%; pest or weed control at 250 g/ha [8]: 10%; pest or weed control at 15.625 g/ha [9]: 0%; pest or weed control at 62.5 g/ha [9]: 0%; pest or weed control at 250 g/ha [9]: 10%; pest or weed control at 15.625 g/ha [10]: 0%; pest or weed control at 62.5 g/ha [10]: 0%; pest or weed control at 250 g/ha [10]: 0%; pest or weed control at 15.625 g/ha [11]: 0%; pest or weed control at 62.5 g/ha [11]: 0%; pest or weed control at 250 g/ha [11]: 20%; pest or weed control at 15.625 g/ha [12]: 0%; pest or weed control at 62.5 g/ha [12]: 0%; pest or weed control at 250 g/ha [12]: 0%
